One data set deals with 3DG. In words: 3-O-methyl sorbitollysine lowers plasma 3DG in diabetic and non-diabetic rats. Type of data set: in vivo. The following applies: Day 8. The protocol: A cohort of twelve diabetic rats was divided into two groups of six. The first group received saline-only injections, and the second received injections of 3-O-methyl sorbitollysine in saline solution. The same procedure was conducted on a cohort of twelve non-diabetic rats.

The nature of data set [1]: Locus of 3-O-methyl sorbitollysine uptake in vivo (tissue, urine, plasma recovery). Further details: species or system rats. Here is the method: Six rats were injected intraperitoneally with […] (4.4 mg) of 3-O-methyl sorbitollysine. The rats' urine was collected for 3 hours, after which the rats were sacrificed. The tissues to be analyzed were removed and freeze clamped in liquid nitrogen. Perchloric acid extracts of the tissues were used for metabolite analysis. The tissues examined were taken from the brain, heart, muscle, sciatic nerve, spleen, pancreas, liver and kidney. Plasma and urine were also analyzed.

The nature of data set [2]: Stability of FL3P in aqueous solution. Type of data set: physicochemical. The following applies: degrades to 3DG, lysine and inorganic phosphate. An excerpt: FL3P is not stable in aqueous solution. It rapidly degrades to form 3DG, lysine and inorganic phosphate. This reaction also occurs in vivo. It is not currently know if the degradation of FL3P in vivo is a spontaneous or enzyme catalyzed reaction. It is strongly suspected, however, that enzymatic catalysis is involved, as the production of 3DG from fructose lysine occurs very rapidly in intact kidney.

A further data set relates to 3-deoxyglucosone. The data set is described as follows: Reduction of urinary and plasma 3-deoxyglucosone after intraperitoneal injection. The following applies: rats, 10 μmols intraperitoneal. It is filed as in vivo. Here is the method:
Urine was collected from six rats for three hours. A plasma sample was also obtained. The animals were then given 10 μmols of either sorbitollysine, mannitollysine, or galactitollysine by intraperitoneal injection. Urine was collected for another three hours, and a plasma sample obtained at the end of the three hours.
3-deoxyglucosone was measured in these samples, as described in Example 5, below, and variable volumes were normalized to creatinine. The average reduction of urinary 3-deoxyglucosone was 50% by sorbitollysine, 35% by mannitollysine and 35% by galactitollysine. Plasma 3-deoxyglucosone was reduced 40% by sorbitollysine, 58% by mannitolysine and 50% by galactitollysine.
c. Use of meglumine to reduce urinary 3-deoxyglucosone. Three rats were treated as in b), immediately above, except meglumine (100 μmols) was injected intraperitoneally instead of the above-mentioned lysine derivatives. Three hours after the injection the average 3-deoxyglucosone concentrations in the urine were decreased 42%.
3DG was measured by GC-MS after deionization of the sample. 3DG was derivatized with a 10-fold excess of diaminonaphthalene in PBS. Ethyl acetate extraction gave a salt free fraction which was converted to the trimethyl silyl ethers with Tri-Sil (Pierce). […] Quantitation of 3DG employed selected ion monitoring using an internal standard of U-13C-3DG.

The next data set has as its system lysine recovery pathway. In words: Urinary FL, 3DG and 3DF in humans following ingestion of glycated protein. The following applies: seven volunteers, 2 g dose of fructoselysine as glycated protein food. Type of data set: in vivo. The protocol:
c. Experimental protocol: Volunteers spent two days on a fructoselysine-free diet and then consumed 22.5 g of the food product prepared as described herein, thus effectively receiving a 2 g. dose of fructoselysine. Urine was collected at 2 hour intervals for 14 hours and a final collection was made at 24 hours. d. Measurement of FL, 3DG and 3DF in urine: FL was measured by HPLC with a Waters 996 diode Array using a Waters C18 Free Amino Acid column at 46° and a gradient elution system of acetonitrile-methyl alcohol-water (45:15:40) into acetonitrile-sodium acetate-water (6:2:92) at 1 ml./min. Quantitation employed an internal standard of meglumine. 3DF was measured by HPLC after deionization of the sample. Analyses were performed on a Dionex DX-500 HPLC system employing a PA1 column (Dionex) and eluting with 32 mM sodium hydroxide at 1 ml./min. Quantitation was performed from standard curves obtained daily with synthetic 3DF. 3DG was measured by GC-MS after deionization of the sample. 3DG was derivatized with a 10-fold excess of diaminonaphthalene in PBS. Ethyl acetate extraction gave a salt free fraction which was converted to the trimethyl silyl ethers with Tri-Sil (Pierce). Analysis was performed on a Hewlett-Packard 5890 selected ion monitoring GC-MS system. […] Quantitation of 3DG employed selected ion monitoring using an internal standard of U-13C-3DG.

A further data set concerns kidney proteins. Further details: species or system rats. The following applies: rat, in vivo. Here is the method:
Two rats were injected daily with 5 μmols. of either FL or mannitol (used as a control) for 5 days. The animals were sacrificed and the kidneys removed and dissected into the cortex and medulla. Tissues were homogenized in 5 volumes of 50 mM Tris.HCl containing 150 mM KCl, 15 mM MgCl2 and 5 mM DTT, pH 7.5. Cellular debris was removed by centrifugation at 10,000 g for 15 minutes, and the supernate was then centrifuged at 150,000 g for 70 minutes. The soluble proteins were analyzed by SDS PAGE on 12% polyacrylamide gels as well as on 4-15 and 10-20% gradient gels.

For the next data set, the system named is FL3P. In words: Kidney FL3P after injection of synthetic fructose-lysine. Type of data set: in vivo. The following applies: non-diabetic rats. Here is the method:
This identification was confirmed in two ways. Authentic fructose-lysine-3-phosphate (FL3P) was synthesized by the procedure disclosed in Example 2, below, and shown to co-resonate in the ^31P NMR spectrum with the peak in diabetic rat kidneys. Synthetic fructose-lysine was also injected into non-diabetic rats.

[3] abbreviates: 3 hours after intraperitoneal injection.

Take `COC(C(O)CNCCCCC(N)C(=O)O)C(O)C(O)CO` (centres unmarked) [3-O-methyl Sorbitollysine, 3-O-methyl sorbitollysine]: the “percent reduction of plasma 3DG vs saline control” value in the data set on 3DG (diabetic rats) is 53%. The “percent reduction of plasma 3DG vs saline control” value in the data set on 3DG (non-diabetic rats) is 43%. Besides, in data set [1] (setting [3]), the “compound present in plasma” value is on record as “plasma did not” and the “tissue extracts containing compound (brain, heart, muscle, sciatic nerve, spleen, pancreas, liver, kidney)” value is on record as “only tissue extract found to contain 3-O-methyl sorbitollysine was that of the kidney”. In addition, the “compound present in urine” value in data set [1] (urine collected for 3 hours) is given as “urine also contained 3-O-methyl sorbitollysine”.

In the case of `NC(CCCCNCC(=O)C(OP(=O)(O)O)C(O)C(O)CO)C(=O)O` (centres unmarked) [FL3P, fructose-lysine-3-phosphate], the “stability in aqueous solution” value in data set [2] was “not stable”.

In the case of galactitol lysine [galactitollysine], in the data set on 3-deoxyglucosone (plasma at end of three hours), the “plasma 3-deoxyglucosone reduced” value is on record as 50%. In the data set with 3-deoxyglucosone (urine collected three hours after vs before, normalized to creatinine), the “average reduction of urinary 3-deoxyglucosone” value is given as 35%.

Take `NC(CCCCNCC(=O)C(O)C(O)C(O)CO)C(=O)O` (centres unmarked) [FL, 1-deoxy-1-(ε-aminolysine)-fructose]: the “time of peak urinary 3DF excretion after the FL bolus” value in the data set on lysine recovery pathway is reported as “about 4 hours”. Besides, the “SDS PAGE of soluble kidney proteins vs mannitol-injected animal” value with kidney proteins was “lower molecular weight bands were missing or visually reduced”. For the same compound, in the data set with FL3P, the “levels of FL3P in kidneys following injection” value was “substantial increase”.

Source of the values: US8431527B2, “Methods for alleviating deleterious effects of 3-deoxyglucosone” (Fox Chase Cancer Center, priority 1997, dated 2013).
